Values quoted from earlier work, collected in US6159964A, “Vitronectin receptor antagonists” (SmithKline Beecham Corporation, priority 1999, dated 2000).

Tested on: fibrinogen receptor
Conditions: template of WO 93/08174

## N=C(N)c1ccc(NC(=O)c2ccc3c(c2)CN(CCc2ccccc2)C(=O)C(CC(=O)O)N3)cc1 (racemic) [(R,S)-7-[[[4-(aminoiminomethyl)phenyl]amino]carbonyl]-4-(2-phenylethyl)-1,3,4,5-tetrahydro-3-oxo-2H-1,4-benzodiazepine-2-acetic acid]
  fibrinogen antagonist activity (in words): potent and selective fibrinogen antagonist
